Assay results published in the CheMixHub ionic liquid set.

Experiment: xn = mol fraction of the nth substance listed

CCCCCCCC[n+]1ccccc1.[Br-] + NCC(=O)NCC(=O)O + O
electrical conductivity [S/m], 100 kPa
Conditions | 288.15 K | 293.15 K | 298.15 K | 303.15 K | 308.15 K
x2 = 0.0008948, x1 = 0.00597 | – | – | – | – | 2.18
x2 = 0.0008948, x1 = 0.005972 | – | – | 1.72 | 1.92 | –
x2 = 0.0008948, x1 = 0.005974 | 1.34 | 1.52 | – | – | –
x2 = 0.000895, x1 = 0.005737 | – | – | – | – | 2.13
x2 = 0.000895, x1 = 0.005739 | – | 1.48 | 1.68 | 1.88 | –
x2 = 0.000895, x1 = 0.005741 | 1.31 | – | – | – | –
x2 = 0.0008953, x1 = 0.005443 | – | – | 1.62 | 1.82 | 2.05
x2 = 0.0008953, x1 = 0.005445 | 1.27 | 1.44 | – | – | –
x2 = 0.0008956, x1 = 0.005122 | – | – | 1.57 | 1.76 | 1.98
x2 = 0.0008956, x1 = 0.005124 | 1.22 | 1.39 | – | – | –
x2 = 0.0008959, x1 = 0.004789 | – | 1.34 | 1.51 | 1.69 | 1.88
x2 = 0.0008959, x1 = 0.00479 | 1.18 | – | – | – | –
x2 = 0.0008962, x1 = 0.004442 | 1.14 | 1.29 | 1.45 | 1.62 | 1.79
x2 = 0.0008965, x1 = 0.004038 | – | – | – | – | 1.69
x2 = 0.0008965, x1 = 0.004039 | 1.07 | 1.21 | 1.36 | 1.52 | –
x2 = 0.000897, x1 = 0.00359 | – | – | 1.26 | 1.4 | 1.55
x2 = 0.000897, x1 = 0.003592 | 0.984 | 1.12 | – | – | –
x2 = 0.0008974, x1 = 0.003106 | 0.886 | 1 | 1.13 | 1.26 | 1.39
x2 = 0.0008979, x1 = 0.002563 | 0.768 | 0.87 | 0.975 | 1.09 | 1.19
x2 = 0.0008984, x1 = 0.002015 | 0.637 | 0.721 | 0.807 | 0.898 | 0.973
x2 = 0.0008987, x1 = 0.001634 | 0.54 | 0.61 | 0.682 | 0.758 | 0.823
x2 = 0.0008991, x1 = 0.001218 | 0.424 | 0.477 | 0.533 | 0.592 | 0.657
x2 = 0.0008995, x1 = 0.0007371 | 0.298 | 0.332 | 0.369 | 0.406 | 0.467
x2 = 0.001787, x1 = 0.006313 | – | – | – | – | 2.23
x2 = 0.001787, x1 = 0.006315 | – | – | 1.76 | 1.95 | –
x2 = 0.001787, x1 = 0.006317 | 1.36 | 1.53 | – | – | –
x2 = 0.001788, x1 = 0.005888 | – | – | 1.69 | 1.87 | 2.13
x2 = 0.001788, x1 = 0.00589 | 1.31 | 1.47 | – | – | –
x2 = 0.001789, x1 = 0.005263 | – | – | – | 1.76 | 1.98
x2 = 0.001789, x1 = 0.005265 | 1.23 | 1.38 | 1.57 | – | –
x2 = 0.001789, x1 = 0.005589 | – | – | 1.63 | 1.81 | 2.05
x2 = 0.001789, x1 = 0.005591 | 1.27 | 1.43 | – | – | –
x2 = 0.00179, x1 = 0.004922 | – | – | 1.51 | 1.69 | 1.88
x2 = 0.00179, x1 = 0.004924 | 1.18 | 1.33 | – | – | –
x2 = 0.001791, x1 = 0.004115 | – | 1.2 | 1.35 | 1.51 | 1.68
x2 = 0.001791, x1 = 0.004116 | 1.06 | – | – | – | –
x2 = 0.001791, x1 = 0.004536 | – | – | – | – | 1.78
x2 = 0.001791, x1 = 0.004537 | 1.13 | 1.27 | 1.44 | 1.61 | –
x2 = 0.001792, x1 = 0.003673 | – | – | – | 1.4 | 1.54
x2 = 0.001792, x1 = 0.003675 | 0.984 | 1.12 | 1.26 | – | –
x2 = 0.001793, x1 = 0.003161 | 0.886 | 0.997 | 1.12 | 1.25 | 1.38
x2 = 0.001794, x1 = 0.002599 | 0.766 | 0.862 | 0.967 | 1.08 | 1.18
x2 = 0.001795, x1 = 0.001992 | 0.62 | 0.699 | 0.783 | 0.87 | 0.87
x2 = 0.001796, x1 = 0.001587 | 0.515 | 0.581 | 0.65 | 0.724 | 0.724
x2 = 0.001797, x1 = 0.0007376 | 0.292 | 0.326 | 0.36 | 0.389 | 0.389
x2 = 0.001797, x1 = 0.001185 | 0.405 | 0.456 | 0.51 | 0.566 | 0.566

CC(=O)[O-].[Na+] + CC(=O)[O-].CC[n+]1ccn(C)c1
303.15 K, 101 kPa, x1 = 0.1001
Conditions | electrical conductivity [S/m] | viscosity [mPa·s]
– | 0.252 | 147.4
